Several values for one entry are separate records, joined by “and”; a condition that tells them apart may be missing. Identical values can stand only once. After the bases stand the sugars from the 5' end (letter, count) and the backbone: PS all phosphorothioate, else s phosphorothioate and o phosphodiester by linkage. Methylation of C is not given here. e = 2'-O-(2-methoxyethyl) (MOE); k = constrained ethyl (cEt); d = 2'-deoxy (DNA)

The target of the data set is SOD1. As to conditions: ASO.

Turning to “GGCGATCCCAATTACACC (sugars e5 d8 e5, linkages s1 o3 s9 o2 s2)”, the target mRNA inhibition by setting is: (A431, 0.062 µM) 3%; (A431, 0.185 µM) 1%; (A431, 0.556 µM) 29%; (A431, 1.667 µM) 0%; (A431, 5 µM) 27%; (A431, 15 µM) 0%. The target mRNA inhibition stood at 0% (SH-SY5Y, 0.062 µM); 3% (SH-SY5Y, 0.185 µM); 21% (SH-SY5Y, 0.556 µM); 31% (SH-SY5Y, 1.667 µM); 47% (SH-SY5Y, 5 µM); 66% (SH-SY5Y, 15 µM).
As to “GGCGATCCCAATTACACCAC (sugars e5 d10 e5, linkages s1 o3 s11 o3 s1)”, the target mRNA inhibition is, setting by setting: (A431, 0.12 µM) 0%; (A431, 0.6 µM) 0%; (A431, 3 µM) 0%; (A431, 15 µM) 30%; (HepG2, 0.222 µM) 24%; (HepG2, 0.667 µM) 34%. Besides, the target mRNA inhibition (HepG2, 2 µM) was 79% and the target mRNA inhibition (HepG2, 6 µM) was determined as 55%.
“GGCGATCCCAATTACACCAC (sugars e6 d8 e6, linkages s1 o3 s10 o3 s2)” showed a target mRNA inhibition (A431, 0.062 µM) of 7%; a target mRNA inhibition (A431, 0.185 µM) of 0%; a target mRNA inhibition (A431, 0.556 µM) of 0%; a target mRNA inhibition (A431, 1.667 µM) of 23%; a target mRNA inhibition (A431, 5 µM) of 14%; a target mRNA inhibition (A431, 15 µM) of 6%. The target mRNA inhibition runs as follows: (SH-SY5Y, 0.062 µM) 0%; (SH-SY5Y, 0.185 µM) 0%; (SH-SY5Y, 0.556 µM) 8%; (SH-SY5Y, 1.667 µM) 23%; (SH-SY5Y, 5 µM) 49%; (SH-SY5Y, 15 µM) 66%.
Sequence “GGCGATCCCAATTACACCAC (sugars e6 d9 e5, linkages s1 o4 s10 o2 s2)” came in with a target mRNA inhibition (A431, 0.062 µM) of 0%; a target mRNA inhibition (A431, 0.185 µM) of 0%; a target mRNA inhibition (A431, 0.556 µM) of 0%; a target mRNA inhibition (A431, 1.667 µM) of 0%; a target mRNA inhibition (A431, 5 µM) of 4%; a target mRNA inhibition (A431, 15 µM) of 0%. In addition, the target mRNA inhibition (SH-SY5Y, 0.062 µM) worked out at 0%; the target mRNA inhibition (SH-SY5Y, 0.185 µM) was 3%; the target mRNA inhibition (SH-SY5Y, 0.556 µM) was 20%; the target mRNA inhibition (SH-SY5Y, 1.667 µM) was 38%; the target mRNA inhibition (SH-SY5Y, 5 µM) came out at 61%; the target mRNA inhibition (SH-SY5Y, 15 µM) was 84%.
“GGCTTGAATGACAAAGA (sugars e2 k2 d8 k2 e3, PS)” gave a target mRNA inhibition (HepG2, 5 µM) of 54%.
“GGGCCTCAGACTACATC (sugars e2 k2 d8 k2 e3, PS)” showed a target mRNA inhibition (HepG2, 4 µM) of 55%.
For the sequence “GGGCCTCAGACTACATC (sugars e3 k2 d7 k2 e3, PS)”, the target mRNA inhibition (HepG2, 3 µM) worked out at 24%.
Turning to “GTACTTTAAAGCAACTCTGA (sugars e5 d10 e5, PS)”, for the setting “HepG2, 5 µM”, the target mRNA inhibition amounted to 22%.
Still for that read-out and setting: the figure for “GTCACACAATTACACTT (sugars e2 k2 d8 k2 e3, PS)” is 28%; for “GTCAGTCCTTTAATGCTTCC (sugars e5 d10 e5, PS)” it is 34%.
In turn, “GTCATCTGCTTTTTCAT (sugars e3 k2 d7 k2 e3, PS)” gave a target mRNA inhibition (HepG2, 3 µM) of 74%.
For “GTCGCCCTTCAGCACGC (sugars e2 k2 d8 k2 e3, PS)”, the target mRNA inhibition (HepG2, 4 µM) is 60%.
Consider “GTGAGGACCTGCACTGG (sugars e3 k2 d7 k2 e3, PS)”, for which, where the note is “HepG2, 3 µM”, the target mRNA inhibition turned out to be 21%.
For the sequence “GTGATCATAAATCAGTT (sugars e2 k2 d8 k2 e3, PS)”, the target mRNA inhibition (HepG2, 5 µM) amounted to 33%.
“GTGATCATAAATCAGTTTCT (sugars e5 d10 e5, PS)” gave a target mRNA inhibition (HepG2, 5 µM) of 37%.
With “GTGCCATACAGGGTTTT (sugars e2 k2 d9 k2 e2, PS)”, the target mRNA inhibition (HepG2, 5 µM) was 28%.
As for “GTGTTTAATGTTTATC (sugars ekddddddddekekee, linkages s1 o1 s8 o3 s2)”, the target mRNA inhibition by setting is: (A431, 0.12 µM) 10%; (A431, 0.6 µM) 32%; (A431, 3 µM) 66%; (A431, 15 µM) 79%; (HepG2, 0.222 µM) 40%; (HepG2, 0.667 µM) 63%. In addition, the target mRNA inhibition by setting is: (HepG2, 2 µM) 76%; (HepG2, 6 µM) 86%.
As to “GTTTAATACCCATCTGT (sugars e3 k2 d7 k2 e3, PS)”, the target mRNA inhibition (HepG2, 3 µM) stood at 17%.
In the case of “GTTTATCAGGATACATT (sugars e2 k2 d9 k2 e2, PS)”, the target mRNA inhibition (HepG2, 0.1875 µM) worked out at 38%; the target mRNA inhibition (HepG2, 0.75 µM) turned out to be 74%; the target mRNA inhibition (HepG2, 3 µM) was found to be 89%; the target mRNA inhibition (HepG2, 4 µM) stood at 88%; the target mRNA inhibition (HepG2, 12 µM) was determined as 95%.
Regarding “GTTTCTCACTACAGGTA (sugars e2 k2 d8 k2 e3, PS)”, the target mRNA inhibition (HepG2, 5 µM) stood at 25%.
The sequence “GTTTCTCACTACAGGTA (sugars e2 k2 d9 k2 e2, PS)” returned a target mRNA inhibition (HepG2, 5 µM) of 38%.
“GTTTCTCACTACAGGTACTT (sugars e5 d10 e5, PS)” returned a target mRNA inhibition (HepG2, 5 µM) of 30%.
For the setting “HepG2, 3 µM”, “GTTTTTATTCACAGGCT (sugars e3 k2 d7 k2 e3, PS)” yielded a target mRNA inhibition of 10%.
For the sequence “TAAGTGCCATACAGGGT (sugars e2 k2 d9 k2 e2, PS)”, the target mRNA inhibition (HepG2, 5 µM) was determined as 35%.
For “TAATAAGTGCCATACAG (sugars e2 k2 d8 k2 e3, PS)”, the target mRNA inhibition (HepG2, 5 µM) was 22%.
Where the note is “HepG2, 5 µM”, “TAATACCCATCTGTGAT (sugars e2 k2 d8 k2 e3, PS)” showed a target mRNA inhibition of 25%.
With “TAATACCCATCTGTGAT (sugars e2 k2 d9 k2 e2, PS)”, the target mRNA inhibition (HepG2, 5 µM) amounted to 28%.
Regarding “TACAAATCTTCCAAGTG (sugars e3 k2 d7 k2 e3, PS)”, the target mRNA inhibition (HepG2, 3 µM) stood at 17%.
Regarding “TACAGGGTTTTTATTCA (sugars e3 k2 d7 k2 e3, PS)”, the target mRNA inhibition (HepG2, 3 µM) amounted to 11%.
Take “TACAGGTACTTTAAAGC (sugars e2 k2 d8 k2 e3, PS)”: where the note is “HepG2, 5 µM”, the target mRNA inhibition was 23%.
Turning to “TACATTTCTACAGCTA (sugars kekeddddddddekek, linkages s1 o3 s8 o1 s2)”, the target mRNA inhibition by setting is: (A431, 0.12 µM) 0%; (A431, 0.6 µM) 13%; (A431, 3 µM) 36%; (A431, 15 µM) 59%.
“TAGCCTCATAATAAGTG (sugars e2 k2 d9 k2 e2, PS)” showed a target mRNA inhibition (HepG2, 5 µM) of 27%.
The sequence “TCACACAATTACACTTTTAA (sugars e5 d10 e5, PS)” showed a target mRNA inhibition (HepG2, 5 µM) of 15%.
As for “TCACAGGCTTGAATGAC (sugars e2 k2 d8 k2 e3, PS)”, the target mRNA inhibition (HepG2, 5 µM) worked out at 28%.
Same read-out and setting: then “TCACAGGCTTGAATGAC (sugars e2 k2 d9 k2 e2, PS)”, with 46%; and “TCACTACAGGTACTTTA (sugars e2 k2 d8 k2 e3, PS)”, with 27%; and “TCACTACAGGTACTTTA (sugars e2 k2 d9 k2 e2, PS)”, with 35%.
On to “TCACTGGTCCATTACTT (sugars e3 k2 d7 k2 e3, PS)”, for which the target mRNA inhibition (HepG2, 3 µM) amounted to 15%.
For “TCAGACTACATCCAAGG (sugars e2 k2 d8 k2 e3, PS)”, the target mRNA inhibition turned out to be 37% (HepG2, 0.1875 µM); 71% (HepG2, 0.75 µM); 81% (HepG2, 3 µM); 79% (HepG2, 4 µM); 92% (HepG2, 12 µM).
For the sequence “TCAGACTACATCCAAGG (sugars e2 k2 d9 k2 e2, PS)”, the target mRNA inhibition reads like this: (HepG2, 0.1875 µM) 0%; (HepG2, 0.75 µM) 47%; (HepG2, 3 µM) 75%; (HepG2, 4 µM) 78%; (HepG2, 12 µM) 90%.
Regarding “TCATAATAAGTGCCATA (sugars e2 k2 d8 k2 e3, PS)”, the target mRNA inhibition (HepG2, 5 µM) worked out at 28%.
“TCATAATAAGTGCCATA (sugars e2 k2 d9 k2 e2, PS)” came in with a target mRNA inhibition (HepG2, 5 µM) of 34%.
Under “HepG2, 3 µM”, “TCCAAGGGAATGTTTAT (sugars e3 k2 d7 k2 e3, PS)” registered a target mRNA inhibition of 32%.
Where the note is “HepG2, 5 µM”, “TCCAAGTGATCATAAAT (sugars e2 k2 d8 k2 e3, PS)” displayed a target mRNA inhibition of 42%.
As for “TCCACCTTTGCCCAAGT (sugars e3 k2 d7 k2 e3, PS)”, under “HepG2, 3 µM”, the target mRNA inhibition stood at 88%.
For the sequence “TCGCCCTTCAGCACGCA (sugars e2 k2 d9 k2 e2, PS)”, the target mRNA inhibition by setting is: (HepG2, 4 µM) 63% and 60% and 54%; (HepG2, 5 µM) 61% and 58% and 71%; (HepG2, 12 µM) 74%.
The sequence “TCGCCCTTCAGCACGCA (sugars e3 k2 d7 k2 e3, PS)” yielded a target mRNA inhibition (HepG2, 3 µM) of 31%.
Consider “TCTCACTACAGGTACTT (sugars e2 k2 d8 k2 e3, PS)”, for which the target mRNA inhibition (HepG2, 5 µM) was 42%.
Turning to “TCTGGATAGAGGATTAA (sugars e3 k2 d7 k2 e3, PS)”, the target mRNA inhibition (HepG2, 3 µM) was 25%.
In the case of “TCTTCATTTCCACCTTT (sugars e3 k2 d7 k2 e3, PS)”, under “HepG2, 3 µM”, the target mRNA inhibition worked out at 31%.
“TCTTCCAAGTGATCATAAAT (sugars e5 d10 e5, PS)” displayed a target mRNA inhibition (HepG2, 5 µM) of 12%.
“TGATCATAAATCAGTTT (sugars e2 k2 d9 k2 e2, PS)” registered a target mRNA inhibition (HepG2, 5 µM) of 38%.
As for “TGATGCAATGGTCTCCTGAG (sugars e5 d10 e5, PS)”, the target mRNA inhibition (HepG2, 5 µM) was 1%.
The sequence “TGATTTAAGTCTGGCAA (sugars e2 k2 d8 k2 e3, PS)” came in with a target mRNA inhibition (HepG2, 5 µM) of 52%.
In the case of “TGCCCTGCACTGGGCCGTCG (sugars e5 d10 e5, PS)”, for the setting “HepG2, 4 µM”, the target mRNA inhibition was determined as 38%.
The sequence “TGCCTCTCTTCATCCTTTGG (sugars e5 d10 e5, PS)” had a target mRNA inhibition (HepG2, 3 µM) of 32%.
For the setting “HepG2, 5 µM”, “TGGACCACCAGTGTGCGGCC (sugars e5 d10 e5, PS)” registered a target mRNA inhibition of 28%.
Consider “TGGCAAAATACAGGTCA (sugars e3 k2 d7 k2 e3, PS)”, for which, for the setting “HepG2, 3 µM”, the target mRNA inhibition came to 26%.

The values are drawn from the OligoGym collection.
